According to publication PMC10247784, “Physiological activation of human and mouse bitter taste receptors by bile acids” (Communications Biology, 2023):

Target: T1, mouse Tas2r144 (Mus musculus, UniProt Q7TQB8)
T1 construct: expressed in transfected cells; host or cells: HEK293T-Gα16gust44
Test: Calcium imaging assay (FLIPR), HEK293T-Gα16gust44 cells transfected with mouse Tas2r144
Assay type: cell-based
Settings: for Δ F/F: Tas2r144
Method: This set of bile acids was chosen because of their commercial availability in high purities, their diversity within the class of bile acids and their previous detection and quantitation in human blood. Stock solutions were prepared in DMSO.
As basal growth medium for the HEK293T-Gα16gust44 cell line[17],[59] served Dulbecco’s modified eagle medium (DMEM) (Thermo Fisher Scientific, Darmstadt, Germany) supplemented with 10 % fetal bovine serum (Sigma-Aldrich, Steinheim, Germany), 2 mM L-glutamine (Sigma-Aldrich, Steinheim, Germany), 100 units/ml penicillin (Sigma Aldrich, Steinheim, Germany) and 100 µg/ml streptomycin (Sigma Aldrich, Steinheim, Germany). Growth conditions were 37 °C, 5 % CO2 and saturated air-humidity[60].
HEK293T-Gα16gust44 cells were seeded on poly-D-lysine (10 µg/ml) coated 96-well plates to reach a confluence of 40-60 % the next day. For transient transfection 150 ng of plasmid DNA containing the receptor of interest and 0.3 µl lipofectamine 2000 (Thermo Fisher Scientific, Darmstadt, Germany) per well were used and transfection took place according to the manual of lipofectamine 2000. […] The empty vector DNA (mock) was transfected as negative control[14],[41].
Cells were loaded using the calcium-sensitive fluorescent dye Fluo-4-AM (Abcam, Cambridge, Great Britain) in the presence of 2.5 mM probenecid (Sigma-Aldrich, Steinheim, Germany) the day after transfection[13],[41]. 1 h after loading, cells were washed with C1 buffer using a BioTek Cell Washer, incubated in the dark for half an hour and washed again. For automated agonist application and measurement of fluorescence changes, a FLIPR^TETRA device (Molecular Devices, San José, United States) was used. Viability of cells was tested by application of 100 nM Somatostatin 14 (Bachem, Bubendorf, Switzerland)[42].
Measured data were negative control corrected by subtracting the signal of the mock-transfected cells and exported to Microsoft Excel using the FLIPR software ScreenWorks 4.2. In Microsoft Excel software, standardization of maximum fluorescence intensities to the basal fluorescence and normalization to the buffer-only control was done to calculate the relative fluorescence changes (ΔF/F).
Initial screening experiments performed in duplicate wells were confirmed by at least one replication and representative traces were selected for display. All dose-response relationships were determined by three independent experiments (biological replicates) performed in duplicates (technical replicates). Threshold concentrations, defined as lowest substance concentrations leading to statistically significant elevated fluorescence changes in receptor-transfected cells compared with empty vector-transfected cells, were determined using SigmaPlot with Student’s t-test to evaluate statistical significance (p < 0.01).

T1 sequence (Q7TQB8 whole entry): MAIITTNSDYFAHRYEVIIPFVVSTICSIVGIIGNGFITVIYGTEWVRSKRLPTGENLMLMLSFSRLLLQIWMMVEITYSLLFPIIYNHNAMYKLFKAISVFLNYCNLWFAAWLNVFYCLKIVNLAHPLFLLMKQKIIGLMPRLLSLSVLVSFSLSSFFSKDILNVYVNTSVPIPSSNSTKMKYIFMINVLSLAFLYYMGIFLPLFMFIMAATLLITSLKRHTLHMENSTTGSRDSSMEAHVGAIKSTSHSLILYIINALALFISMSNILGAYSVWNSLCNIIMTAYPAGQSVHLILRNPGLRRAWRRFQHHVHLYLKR

C[C@H](CCC(=O)NCCS(=O)(=O)O)[C@H]1CC[C@H]2[C@@H]3[C@H](O)C[C@@H]4C[C@H](O)CC[C@]4(C)[C@H]3C[C@H](O)[C@]12C [Taurocholic Acid, taurocholic acid]
Δ F/F (conc. 0,01 mM): -0.002199 | Δ F/F (conc. 0,1 mM): 0.02935 | Δ F/F (conc. 0,03 mM): 0.001887 | Δ F/F (conc. 0,3 mM): 0.09426 | Δ F/F (conc. 0,003 mM): -2.869e-5 | RLU (Time 0 s): 0 RLU | RLU (Time 2 s): 20.3472 RLU | RLU (Time 4 s): -2.315 RLU | RLU (Time 6 s): 2.885 RLU | RLU (Time 8 s): 19.0475 RLU | RLU (Time 12 s): 10.0521 RLU | RLU (Time 14 s): 38.5551 RLU | RLU (Time 16 s): 31.9896 RLU | RLU (Time 18 s): 16.9759 RLU | RLU (Time 18.781 s): 35.5911 RLU | RLU (Time 20.781 s): -26.0614 RLU | RLU (Time 22.781 s): 10.3855 RLU | RLU (Time 24.781 s): 42.5149 RLU | RLU (Time 26.781 s): 75.1117 RLU | RLU (Time 28.781 s): 107.959 RLU | RLU (Time 30.781 s): 191.931 RLU | RLU (Time 32.781 s): 233.393 RLU | RLU (Time 34.781 s): 329.647 RLU | RLU (Time 36.781 s): 353.155 RLU | RLU (Time 38.781 s): 375.923 RLU | RLU (Time 40.781 s): 418.403 RLU | RLU (Time 42.781 s): 459.472 RLU | RLU (Time 44.781 s): 478.994 RLU | RLU (Time 46.781 s): 502.94 RLU | RLU (Time 48.781 s): 488.439 RLU | RLU (Time 50.781 s): 507.687 RLU | RLU (Time 52.781 s): 535.446 RLU | RLU (Time 54.781 s): 537.48 RLU | RLU (Time 56.781 s): 552.298 RLU | RLU (Time 58.781 s): 553.568 RLU | RLU (Time 60.781 s): 540.78 RLU | RLU (Time 62.781 s): 553.576 RLU | RLU (Time 64.781 s): 587.565 RLU | RLU (Time 66.781 s): 607.94 RLU | RLU (Time 68.781 s): 577.506 RLU | RLU (Time 70.781 s): 560.61 RLU | RLU (Time 72.781 s): 573.499 RLU | RLU (Time 74.781 s): 563.961 RLU | RLU (Time 76.781 s): 534.766 RLU | RLU (Time 78.781 s): 571.912 RLU | RLU (Time 80.781 s): 551.232 RLU | RLU (Time 82.781 s): 526.613 RLU | RLU (Time 84.781 s): 546.451 RLU | RLU (Time 86.781 s): 562.077 RLU | RLU (Time 88.781 s): 533.968 RLU | RLU (Time 90.781 s): 548.478 RLU | RLU (Time 92.781 s): 529.823 RLU | RLU (Time 94.781 s): 519.583 RLU | RLU (Time 96.781 s): 507.965 RLU | RLU (Time 98.781 s): 551.349 RLU | RLU (Time 100.781 s): 524.649 RLU | RLU (Time 102.781 s): 541.47 RLU | RLU (Time 104.781 s): 532.417 RLU | RLU (Time 106.781 s): 501.886 RLU | RLU (Time 108.781 s): 527.817 RLU | RLU (Time 110.781 s): 463.149 RLU | RLU (Time 112.781 s): 531.02 RLU | RLU (Time 114.781 s): 478.341 RLU | RLU (Time 116.781 s): 478.013 RLU | RLU (Time 118.781 s): 466.916 RLU | RLU (Time 120.781 s): 480.033 RLU | RLU (Time 122.781 s): 446.768 RLU | RLU (Time 124.781 s): 466.738 RLU | RLU (Time 126.781 s): 436.51 RLU | RLU (Time 128.781 s): 391.35 RLU | RLU (Time 130.781 s): 423.189 RLU | RLU (Time 132.781 s): 388.666 RLU | RLU (Time 134.781 s): 393.586 RLU | RLU (Time 136.781 s): 381.514 RLU | RLU (Time 137.562 s): 357.695 RLU | RLU (Time 143.562 s): 342.181 RLU | RLU (Time 149.562 s): 317.247 RLU | RLU (Time 155.562 s): 281.598 RLU | RLU (Time 161.562 s): 257.735 RLU | RLU (Time 167.562 s): 210.766 RLU | RLU (Time 173.562 s): 206.542 RLU | RLU (Time 179.562 s): 190.508 RLU | RLU (Time 185.562 s): 200.355 RLU | RLU (Time 191.562 s): 160.215 RLU | RLU (Time 197.562 s): 155.746 RLU | RLU (Time 203.562 s): 134.432 RLU | RLU (Time 209.562 s): 105.802 RLU | RLU (Time 215.562 s): 143.523 RLU | RLU (Time 221.562 s): 59.3524 RLU | RLU (Time 227.562 s): 55.9412 RLU | RLU (Time 233.562 s): 52.6104 RLU | RLU (Time 239.562 s): 63.4802 RLU | RLU (Time 245.562 s): 58.9605 RLU | RLU (Time 293.562 s): 59.2604 RLU | RLU (Time 299.562 s): 83.1975 RLU | RLU (Time 305.562 s): 80.6402 RLU | RLU (Time 311.562 s): 35.6084 RLU | RLU (Time 317.562 s): 31.2984 RLU | RLU (Time 323.562 s): -1.058 RLU | RLU (Time 329.562 s): 12.6222 RLU | RLU (Time 335.562 s): -16.6341 RLU | RLU (Time 341.562 s): 9.34 RLU | RLU (Time 347.562 s): 17.8158 RLU | RLU (Time 353.562 s): 33.5062 RLU | RLU (Time 359.562 s): 34.8754 RLU | Activation threshold concentration Tas2r144 (p < 0.01 vs empty vector): 300 µM
